TGI data for 2 compounds are collected here from PubChem BioAssay (NCI).

Test systems include HCC-2998 colon; SF-295 CNS; MCF7 breast; SN12C renal; NCI-H522 lung; OVCAR-5 ovarian; SNB-75 CNS; SK-OV-3 ovarian; UACC-62 melanoma; HOP-62 NSCLC; SW-620 colon.
Common to all, as to test: NCI anticancer screen, dose series, 48 h

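Growth conditions: 96-well plates. Treatment: test compound, 48 hours, 5 concentrations. Analysis: linear interpolation between bracketing concentrations; unreached endpoints set to highest concentration. Definition used: TGI = concentration required for complete inhibition of growth.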

Regarding `O=C(c1ccccc1)C(Nc1ccc2ccccc2c1)c1ccccc1` (configuration not stated), the TGI in the test on HCC-2998 colon is 56.6 µM; in the test on SF-295 CNS it was above 100 µM; in the test on MCF7 breast it was above 100 µM; in the test with SN12C renal it was above 100 µM; in the test with NCI-H522 lung it was above 67.3 µM; with OVCAR-5 ovarian it was above 100 µM. The TGI in the test on SNB-75 CNS was above 71.9 µM; in the test with SK-OV-3 ovarian, above 100 µM; with UACC-62 melanoma, above 100 µM; in the test on HOP-62 NSCLC, above 100 µM; in the test with SW-620 colon it was above 100 µM.

For `Cc1cnc2c(c1)C(=O)N(c1ccc([N+](=O)[O-])cc1)S2(=O)=O`, the TGI in the test on HCC-2998 colon, with SF-295 CNS, with MCF7 breast, in the test on SN12C renal, in the test with NCI-H522 lung and in the test on OVCAR-5 ovarian was above 100 µM throughout. The TGI in the test on SNB-75 CNS, with SK-OV-3 ovarian, in the test on UACC-62 melanoma, with HOP-62 NSCLC and in the test with SW-620 colon was above 100 µM in each case.
